# Reference: PubChem BioAssay (NCI)
#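 Five concentrations, 48 hours, 96-well plates. At the TGI there is no net growth.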
# Key:
# Assay in all cases: inhibition of tumour cell growth, NCI panel, 48 h
# IGROV1 ovarian = system: IGROV1 ovarian
# UO-31 renal = system: UO-31 renal
# BT-549 breast = system: BT-549 breast
# OVCAR-8 ovarian = system: OVCAR-8 ovarian
# DU-145 prostate = system: DU-145 prostate
# SK-MEL-2 melanoma = system: SK-MEL-2 melanoma
# SW-620 colon = system: SW-620 colon
# K-562 leukemia = system: K-562 leukemia
# T-47D breast = system: T-47D breast
# HOP-62 NSCLC = system: HOP-62 NSCLC
# OVCAR-5 ovarian = system: OVCAR-5 ovarian
# SK-MEL-5 melanoma = system: SK-MEL-5 melanoma
# SN12C renal = system: SN12C renal
# HOP-92 NSCLC = system: HOP-92 NSCLC
# TK-10 renal = system: TK-10 renal
# 786-0 renal = system: 786-0 renal
# CAKI-1 renal = system: CAKI-1 renal
# NCI-H226 lung = system: NCI-H226 lung
# HCT-116 colon = system: HCT-116 colon
# SF-295 CNS = system: SF-295 CNS
# HT29 colon = system: HT29 colon
# KM12 colon = system: KM12 colon
# OVCAR-3 ovarian = system: OVCAR-3 ovarian
# HL-60(TB) leukemia = system: HL-60(TB) leukemia
# OVCAR-4 ovarian = system: OVCAR-4 ovarian
# NCI-H23 lung = system: NCI-H23 lung
# HCC-2998 colon = system: HCC-2998 colon
# SF-539 CNS = system: SF-539 CNS
# LOX IMVI melanoma = system: LOX IMVI melanoma
# U251 CNS = system: U251 CNS
# A498 renal = system: A498 renal
# CCRF-CEM leukemia = system: CCRF-CEM leukemia
# PC-3 prostate = system: PC-3 prostate
# ACHN renal = system: ACHN renal
# MDA-N = system: MDA-N
# SK-MEL-28 melanoma = system: SK-MEL-28 melanoma
# UACC-257 melanoma = system: UACC-257 melanoma
# MDA-MB-435 = system: MDA-MB-435
# COLO 205 colon = system: COLO 205 colon
# MDA-MB-231 breast = system: MDA-MB-231 breast
# NCI/ADR-RES ovarian = system: NCI/ADR-RES ovarian
# RPMI-8226 leukemia = system: RPMI-8226 leukemia
# MALME-3M melanoma = system: MALME-3M melanoma
# HCT-15 colon = system: HCT-15 colon
# SF-268 CNS = system: SF-268 CNS
# SK-OV-3 ovarian = system: SK-OV-3 ovarian
# RXF 393 renal = system: RXF 393 renal
# MCF7 breast = system: MCF7 breast
# A549 NSCLC = system: A549 NSCLC
# NCI-H460 lung = system: NCI-H460 lung
# M14 melanoma = system: M14 melanoma
# MOLT-4 leukemia = system: MOLT-4 leukemia
# SNB-19 CNS = system: SNB-19 CNS
# SR leukemia = system: SR leukemia
# EKVX NSCLC = system: EKVX NSCLC
# SNB-75 CNS = system: SNB-75 CNS
# UACC-62 melanoma = system: UACC-62 melanoma
# NCI-H522 lung = system: NCI-H522 lung
structure (smiles),measurement,setting,value
C[C@]12CCC3c4ccc(O)cc4CC[C@H]3C1CC(=O)NC2=O (some centres not stated),TGI,IGROV1 ovarian,> 10 µM
same,TGI,UO-31 renal,> 10 µM
same,TGI,BT-549 breast,> 10 µM
same,TGI,OVCAR-8 ovarian,> 10 µM
same,TGI,DU-145 prostate,> 10 µM
same,TGI,SK-MEL-2 melanoma,> 10 µM
same,TGI,SW-620 colon,> 10 µM
same,TGI,K-562 leukemia,> 10 µM
same,TGI,T-47D breast,> 10 µM
same,TGI,HOP-62 NSCLC,> 10 µM
same,TGI,OVCAR-5 ovarian,> 10 µM
same,TGI,SK-MEL-5 melanoma,> 10 µM
same,TGI,SN12C renal,> 10 µM
same,TGI,HOP-92 NSCLC,> 10 µM
same,TGI,TK-10 renal,> 10 µM
same,TGI,786-0 renal,> 10 µM
same,TGI,CAKI-1 renal,> 10 µM
same,TGI,NCI-H226 lung,> 10 µM
same,TGI,HCT-116 colon,> 10 µM
same,TGI,SF-295 CNS,> 10 µM
same,TGI,HT29 colon,> 10 µM
same,TGI,KM12 colon,> 10 µM
same,TGI,OVCAR-3 ovarian,> 10 µM
same,TGI,HL-60(TB) leukemia,> 10 µM
same,TGI,OVCAR-4 ovarian,> 10 µM
same,TGI,NCI-H23 lung,> 10 µM
same,TGI,HCC-2998 colon,> 10 µM
same,TGI,SF-539 CNS,> 10 µM
same,TGI,LOX IMVI melanoma,> 10 µM
same,TGI,U251 CNS,> 10 µM
same,TGI,A498 renal,> 10 µM
same,TGI,CCRF-CEM leukemia,> 10 µM
same,TGI,PC-3 prostate,> 10 µM
same,TGI,ACHN renal,> 10 µM
same,TGI,MDA-N,> 10 µM
same,TGI,SK-MEL-28 melanoma,> 10 µM
same,TGI,UACC-257 melanoma,> 10 µM
same,TGI,MDA-MB-435,> 10 µM
same,TGI,COLO 205 colon,> 10 µM
same,TGI,MDA-MB-231 breast,> 10 µM
same,TGI,NCI/ADR-RES ovarian,> 10 µM
same,TGI,RPMI-8226 leukemia,> 10 µM
same,TGI,MALME-3M melanoma,> 10 µM
same,TGI,HCT-15 colon,> 10 µM
same,TGI,SF-268 CNS,> 10 µM
same,TGI,SK-OV-3 ovarian,> 10 µM
same,TGI,RXF 393 renal,> 10 µM
same,TGI,MCF7 breast,> 10 µM
same,TGI,A549 NSCLC,> 10 µM
same,TGI,NCI-H460 lung,> 10 µM
same,TGI,M14 melanoma,> 10 µM
same,TGI,MOLT-4 leukemia,> 10 µM
same,TGI,SNB-19 CNS,> 10 µM
same,TGI,SR leukemia,> 10 µM
O=S(=O)(O)c1cc(N=Nc2cccc3ccccc23)c(O)c2ncccc12,TGI,EKVX NSCLC,> 100 µM
same,TGI,IGROV1 ovarian,> 100 µM
same,TGI,BT-549 breast,> 100 µM
same,TGI,OVCAR-8 ovarian,> 100 µM
same,TGI,DU-145 prostate,> 100 µM
same,TGI,SK-MEL-2 melanoma,> 100 µM
same,TGI,SW-620 colon,> 100 µM
same,TGI,K-562 leukemia,> 100 µM
same,TGI,T-47D breast,> 100 µM
same,TGI,HOP-62 NSCLC,> 100 µM
same,TGI,SNB-75 CNS,> 100 µM
same,TGI,OVCAR-5 ovarian,> 100 µM
same,TGI,SK-MEL-5 melanoma,> 100 µM
same,TGI,SN12C renal,> 100 µM
same,TGI,HOP-92 NSCLC,> 100 µM
same,TGI,TK-10 renal,> 100 µM
same,TGI,786-0 renal,> 100 µM
same,TGI,CAKI-1 renal,> 100 µM
same,TGI,NCI-H226 lung,85.8 µM
same,TGI,HCT-116 colon,> 100 µM
same,TGI,SF-295 CNS,> 100 µM
same,TGI,HT29 colon,83.5 µM
same,TGI,KM12 colon,> 100 µM
same,TGI,OVCAR-3 ovarian,> 100 µM
same,TGI,HL-60(TB) leukemia,> 100 µM
same,TGI,OVCAR-4 ovarian,> 100 µM
same,TGI,NCI-H23 lung,> 100 µM
same,TGI,SF-539 CNS,> 100 µM
same,TGI,LOX IMVI melanoma,> 100 µM
same,TGI,U251 CNS,> 100 µM
same,TGI,A498 renal,> 100 µM
same,TGI,CCRF-CEM leukemia,> 100 µM
same,TGI,PC-3 prostate,> 100 µM
same,TGI,ACHN renal,> 100 µM
same,TGI,MDA-N,> 100 µM
same,TGI,SK-MEL-28 melanoma,> 100 µM
same,TGI,UACC-257 melanoma,> 100 µM
same,TGI,MDA-MB-435,> 100 µM
same,TGI,COLO 205 colon,> 100 µM
same,TGI,MDA-MB-231 breast,> 100 µM
same,TGI,NCI/ADR-RES ovarian,> 100 µM
same,TGI,RPMI-8226 leukemia,> 100 µM
same,TGI,HCT-15 colon,> 100 µM
same,TGI,SK-OV-3 ovarian,> 100 µM
same,TGI,RXF 393 renal,> 100 µM
same,TGI,MCF7 breast,> 100 µM
same,TGI,A549 NSCLC,> 100 µM
same,TGI,NCI-H460 lung,69.4 µM
same,TGI,M14 melanoma,> 100 µM
same,TGI,UACC-62 melanoma,> 100 µM
same,TGI,MOLT-4 leukemia,> 100 µM
same,TGI,SNB-19 CNS,> 100 µM
same,TGI,SR leukemia,65.7 µM
COc1ccc2c(C)cc(C)nc2n1,TGI,EKVX NSCLC,> 100 µM
same,TGI,IGROV1 ovarian,> 100 µM
same,TGI,UO-31 renal,> 100 µM
same,TGI,BT-549 breast,> 100 µM
same,TGI,OVCAR-8 ovarian,> 100 µM
same,TGI,DU-145 prostate,> 100 µM
same,TGI,SK-MEL-2 melanoma,> 100 µM
same,TGI,SW-620 colon,> 100 µM
same,TGI,K-562 leukemia,> 100 µM
same,TGI,T-47D breast,> 100 µM
same,TGI,HOP-62 NSCLC,> 100 µM
same,TGI,SNB-75 CNS,> 100 µM
same,TGI,OVCAR-5 ovarian,> 100 µM
same,TGI,SK-MEL-5 melanoma,> 100 µM
same,TGI,SN12C renal,> 100 µM
same,TGI,HOP-92 NSCLC,> 100 µM
same,TGI,TK-10 renal,> 100 µM
same,TGI,786-0 renal,> 100 µM
same,TGI,CAKI-1 renal,> 100 µM
same,TGI,HCT-116 colon,> 100 µM
same,TGI,SF-295 CNS,> 100 µM
same,TGI,HT29 colon,> 100 µM
same,TGI,KM12 colon,> 100 µM
same,TGI,OVCAR-3 ovarian,> 100 µM
same,TGI,HL-60(TB) leukemia,> 100 µM
same,TGI,OVCAR-4 ovarian,> 100 µM
same,TGI,NCI-H23 lung,> 100 µM
same,TGI,HCC-2998 colon,> 100 µM
same,TGI,LOX IMVI melanoma,> 100 µM
same,TGI,U251 CNS,> 100 µM
same,TGI,A498 renal,> 100 µM
same,TGI,CCRF-CEM leukemia,> 100 µM
same,TGI,PC-3 prostate,> 100 µM
same,TGI,ACHN renal,> 100 µM
same,TGI,MDA-N,> 100 µM
same,TGI,SK-MEL-28 melanoma,> 100 µM
same,TGI,UACC-257 melanoma,> 100 µM
same,TGI,MDA-MB-435,> 100 µM
same,TGI,COLO 205 colon,> 100 µM
same,TGI,MDA-MB-231 breast,> 100 µM
same,TGI,NCI/ADR-RES ovarian,> 100 µM
same,TGI,RPMI-8226 leukemia,> 100 µM
same,TGI,NCI-H522 lung,> 100 µM
same,TGI,MALME-3M melanoma,> 100 µM
same,TGI,HCT-15 colon,> 100 µM
same,TGI,SK-OV-3 ovarian,> 100 µM
same,TGI,RXF 393 renal,> 100 µM
same,TGI,MCF7 breast,> 100 µM
same,TGI,A549 NSCLC,> 100 µM
same,TGI,NCI-H460 lung,> 100 µM
same,TGI,M14 melanoma,> 100 µM
same,TGI,UACC-62 melanoma,> 100 µM
same,TGI,MOLT-4 leukemia,> 100 µM
same,TGI,SNB-19 CNS,> 100 µM
same,TGI,SR leukemia,> 100 µM
